Test in all cases: Bliss interaction score (quartile over a dose matrix) (fitness difference); higher = more antagonism (negative = synergy)
The subject of one experiment is S. aureus Newman. The gist of the method: (§1)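 At entry into stationary phase, OD595 was recorded and divided by the robust mean of the no-drug wells on that plate, with any value above 1 set to 1. This gives the fitness measure used throughout. Single-drug fitness was inferred from combination data, and the Bliss score, observed minus product-expected fitness, is shown as quartiles across technical, biological and donor/recipient replicates.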

In the next experiment the test system is S. aureus DSM 20231. The gist of the method:
as §1

The test system of the next experiment is S. pneumoniae D39V. The method, boiled down:
as §1

In another experiment the test system is B. subtilis 168. The method, boiled down: as §1

From the supplement of paper PMC10627819 come the findings set out here.
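Also: first quartile when negative (synergy) and third quartile when positive (antagonism).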

For `CO/N=C(\C(=O)N[C@@H]1C(=O)N2C(C(=O)[O-])=C(C[N+]3(C)CCCC3)CS[C@H]12)c1csc(N)n1` [Cefepime] + O=C(O[C@@H]1Cc2c(O)cc(O)cc2O[C@@H]1c1cc(O)c(O)c(O)c1)c1cc(O)c(O)c(O)c1 [EGCG], the Bliss interaction score is -0.0498 with S. aureus Newman, -0.159 with S. aureus DSM 20231, 0.0602 with S. pneumoniae D39V and 0.0402 with B. subtilis 168.

Turning to `CO/N=C(\C(=O)N[C@@H]1C(=O)N2C(C(=O)[O-])=C(C[N+]3(C)CCCC3)CS[C@H]12)c1csc(N)n1` [Cefepime] + Oc1cc(Cl)ccc1Oc1ccc(Cl)cc1Cl [Triclosan], the Bliss interaction score in the experiment on S. aureus Newman is -0.0285; with S. aureus DSM 20231, 0.0725; in the experiment on S. pneumoniae D39V it was -0.0485; in the experiment on B. subtilis 168 it was 0.0502.

As to `CCCCCCCCCC(=O)N[C@@H](Cc1c[nH]c2ccccc12)C(=O)N[C@H](CC(N)=O)C(=O)N[C@@H](CC(=O)O)C(=O)N[C@@H]1C(=O)NCC(=O)N[C@@H](CCCN)C(=O)N[C@@H](CC(=O)O)C(=O)N[C@H](C)C(=O)N[C@@H](CC(=O)O)C(=O)NCC(=O)N[C@H](CO)C(=O)N[C@@H]([C@H](C)CC(=O)O)C(=O)N[C@@H](CC(=O)c2ccccc2N)C(=O)O[C@@H]1C` [Daptomycin] + CC1(C)S[C@@H]2[C@H](NC(=O)Cc3ccccc3)C(=O)N2[C@H]1C(=O)O [PenicillinG], the Bliss interaction score in the experiment on S. aureus Newman is 0.0645; in the experiment with S. aureus DSM 20231 it was 0.0411; in the experiment with S. pneumoniae D39V, 0.107; in the experiment on B. subtilis 168, 0.101.

For `CCCCCCCCCC(=O)N[C@@H](Cc1c[nH]c2ccccc12)C(=O)N[C@H](CC(N)=O)C(=O)N[C@@H](CC(=O)O)C(=O)N[C@@H]1C(=O)NCC(=O)N[C@@H](CCCN)C(=O)N[C@@H](CC(=O)O)C(=O)N[C@H](C)C(=O)N[C@@H](CC(=O)O)C(=O)NCC(=O)N[C@H](CO)C(=O)N[C@@H]([C@H](C)CC(=O)O)C(=O)N[C@@H](CC(=O)c2ccccc2N)C(=O)O[C@@H]1C` [Daptomycin] + CC(=O)O[C@H]1C[C@@]2(C)[C@@H](C[C@@H](O)[C@H]3[C@@]4(C)CC[C@@H](O)[C@@H](C)[C@@H]4CC[C@@]32C)/C1=C(\CCC=C(C)C)C(=O)O [Fusidic acid], the Bliss interaction score is -0.0422 in the experiment on S. aureus Newman, 0.0265 with S. aureus DSM 20231, -0.109 in the experiment with S. pneumoniae D39V and 0.0625 with B. subtilis 168.

With `CCCCCCCCCC(=O)N[C@@H](Cc1c[nH]c2ccccc12)C(=O)N[C@H](CC(N)=O)C(=O)N[C@@H](CC(=O)O)C(=O)N[C@@H]1C(=O)NCC(=O)N[C@@H](CCCN)C(=O)N[C@@H](CC(=O)O)C(=O)N[C@H](C)C(=O)N[C@@H](CC(=O)O)C(=O)NCC(=O)N[C@H](CO)C(=O)N[C@@H]([C@H](C)CC(=O)O)C(=O)N[C@@H](CC(=O)c2ccccc2N)C(=O)O[C@@H]1C` [Daptomycin] + CC[C@H]1OC(=O)[C@H](C)C(=O)[C@H](C)[C@@H](O[C@@H]2O[C@H](C)C[C@H](N(C)C)[C@H]2O)[C@](C)(OC)C[C@@H](C)C(=O)[C@H](C)[C@H]2N(CCCCn3cnc(-c4cccnc4)c3)C(=O)O[C@]12C [Telithromycin], the Bliss interaction score in the experiment on S. aureus Newman was 0.0361; with S. aureus DSM 20231, 0.0926; with S. pneumoniae D39V, -0.0436; with B. subtilis 168 it was 0.0516.

For the molecule `CCCCCCCCCC(=O)N[C@@H](Cc1c[nH]c2ccccc12)C(=O)N[C@H](CC(N)=O)C(=O)N[C@@H](CC(=O)O)C(=O)N[C@@H]1C(=O)NCC(=O)N[C@@H](CCCN)C(=O)N[C@@H](CC(=O)O)C(=O)N[C@H](C)C(=O)N[C@@H](CC(=O)O)C(=O)NCC(=O)N[C@H](CO)C(=O)N[C@@H]([C@H](C)CC(=O)O)C(=O)N[C@@H](CC(=O)c2ccccc2N)C(=O)O[C@@H]1C` [Daptomycin] + CC[C@H]1OC(=O)[C@H](C)[C@@H](O[C@H]2C[C@@](C)(OC)[C@@H](O)[C@H](C)O2)[C@H](C)[C@@H](O[C@@H]2O[C@H](C)C[C@H](N(C)C)[C@H]2O)[C@](C)(O)C[C@@H](C)C(=O)[C@H](C)[C@@H](O)[C@]1(C)O [Erythromycin], the Bliss interaction score is -0.034 in the experiment with S. aureus Newman, 0.0418 with S. aureus DSM 20231, -0.0815 in the experiment on S. pneumoniae D39V and 0.102 in the experiment with B. subtilis 168.

Turning to `CCCCCCCCCC(=O)N[C@@H](Cc1c[nH]c2ccccc12)C(=O)N[C@H](CC(N)=O)C(=O)N[C@@H](CC(=O)O)C(=O)N[C@@H]1C(=O)NCC(=O)N[C@@H](CCCN)C(=O)N[C@@H](CC(=O)O)C(=O)N[C@H](C)C(=O)N[C@@H](CC(=O)O)C(=O)NCC(=O)N[C@H](CO)C(=O)N[C@@H]([C@H](C)CC(=O)O)C(=O)N[C@@H](CC(=O)c2ccccc2N)C(=O)O[C@@H]1C` [Daptomycin] + CN[C@H](CC(C)C)C(=O)N[C@H]1C(=O)N[C@@H](CC(N)=O)C(=O)N[C@H]2C(=O)N[C@H]3C(=O)N[C@H](C(=O)N[C@H](C(=O)O)c4cc(O)cc(O)c4-c4cc3ccc4O)[C@H](O[C@H]3C[C@](C)(N)[C@@H](O)[C@H](C)O3)c3ccc(c(Cl)c3)Oc3cc2cc(c3O[C@@H]2O[C@H](CO)[C@@H](O)[C@H](O)[C@H]2O[C@H]2C[C@](C)(NCc3ccc(-c4ccc(Cl)cc4)cc3)[C@@H](O)[C@H](C)O2)Oc2ccc(cc2Cl)[C@H]1O [Oritavancin], the Bliss interaction score in the experiment with S. aureus Newman is 0.0913; in the experiment on S. aureus DSM 20231, 0.0891; in the experiment on S. pneumoniae D39V, 0.0853; in the experiment with B. subtilis 168, -0.0305.

Regarding `CCCCCCCCCC(=O)N[C@@H](Cc1c[nH]c2ccccc12)C(=O)N[C@H](CC(N)=O)C(=O)N[C@@H](CC(=O)O)C(=O)N[C@@H]1C(=O)NCC(=O)N[C@@H](CCCN)C(=O)N[C@@H](CC(=O)O)C(=O)N[C@H](C)C(=O)N[C@@H](CC(=O)O)C(=O)NCC(=O)N[C@H](CO)C(=O)N[C@@H]([C@H](C)CC(=O)O)C(=O)N[C@@H](CC(=O)c2ccccc2N)C(=O)O[C@@H]1C` [Daptomycin] + CO[C@@]12[C@H](COC(N)=O)C3=C(C(=O)C(C)=C(N)C3=O)N1C[C@@H]1N[C@@H]12 [MitomycinC], the Bliss interaction score in the experiment with S. aureus Newman is -0.0398; in the experiment on S. aureus DSM 20231, 0.0739; in the experiment on S. pneumoniae D39V it was -0.0769; in the experiment with B. subtilis 168 it was 0.0997.

`CCCCCCCCCC(=O)N[C@@H](Cc1c[nH]c2ccccc12)C(=O)N[C@H](CC(N)=O)C(=O)N[C@@H](CC(=O)O)C(=O)N[C@@H]1C(=O)NCC(=O)N[C@@H](CCCN)C(=O)N[C@@H](CC(=O)O)C(=O)N[C@H](C)C(=O)N[C@@H](CC(=O)O)C(=O)NCC(=O)N[C@H](CO)C(=O)N[C@@H]([C@H](C)CC(=O)O)C(=O)N[C@@H](CC(=O)c2ccccc2N)C(=O)O[C@@H]1C` [Daptomycin] + Oc1cc(Cl)ccc1Oc1ccc(Cl)cc1Cl [Triclosan]: the Bliss interaction score in the experiment on S. aureus Newman is -0.0264; in the experiment on S. aureus DSM 20231, 0.0576; in the experiment on S. pneumoniae D39V it was 0.0768; with B. subtilis 168 it was -0.0488.

In the case of `C[C@H]1COc2c(N3CCN(C)CC3)c(F)cc3c(=O)c(C(=O)O)cn1c23` [Levofloxacin] + CC1(C)S[C@@H]2[C@H](NC(=O)Cc3ccccc3)C(=O)N2[C@H]1C(=O)O [PenicillinG], the Bliss interaction score in the experiment with S. aureus Newman is -0.0602; with S. aureus DSM 20231 it was 0.0432; with S. pneumoniae D39V, -0.103; in the experiment with B. subtilis 168 it was 0.0528.

Turning to `C[C@H]1COc2c(N3CCN(C)CC3)c(F)cc3c(=O)c(C(=O)O)cn1c23` [Levofloxacin] + CCCCCCCCCC(=O)N[C@@H]1[C@H]([C@@H]([C@H](O[C@H]1OC2=C3C=C4C=C2OC5=C(C=C(C=C5)[C@H]([C@H]6C(=O)N[C@@H](C7=C(C(=CC(=C7)O)OC8[C@H]([C@H]([C@@H]([C@H](O8)CO)O)O)O)C9=C(C=CC(=C9)[C@H](C(=O)N6)NC(=O)[C@@H]4NC(=O)[C@@H]1C2=CC(=CC(=C2)OC2=C(C=CC(=C2)[C@H](C(=O)N[C@H](CC2=CC(=C(O3)C=C2)Cl)C(=O)N1)N)O)O)O)C(=O)O)O[C@H]1[C@@H]([C@H]([C@@H]([C@H](O1)CO)O)O)NC(=O)C)Cl)CO)O)O [Teicoplanin], the Bliss interaction score with S. aureus Newman (main component drawn) was -0.0552; in the experiment with S. aureus DSM 20231 (main component drawn), -0.0673; with S. pneumoniae D39V (main component drawn), -0.0681; in the experiment on B. subtilis 168 (main component drawn), 0.0334.

As for `C[C@H]1COc2c(N3CCN(C)CC3)c(F)cc3c(=O)c(C(=O)O)cn1c23` [Levofloxacin] + CC[C@H]1OC(=O)[C@H](C)C(=O)[C@H](C)[C@@H](O[C@@H]2O[C@H](C)C[C@H](N(C)C)[C@H]2O)[C@](C)(OC)C[C@@H](C)C(=O)[C@H](C)[C@H]2N(CCCCn3cnc(-c4cccnc4)c3)C(=O)O[C@]12C [Telithromycin], the Bliss interaction score in the experiment on S. aureus Newman worked out at 0.0408; in the experiment on S. aureus DSM 20231, 0.0361; in the experiment with S. pneumoniae D39V, 0.0737; with B. subtilis 168, 0.0654.

`C[C@H]1COc2c(N3CCN(C)CC3)c(F)cc3c(=O)c(C(=O)O)cn1c23` [Levofloxacin] + CN[C@H](CC(C)C)C(=O)N[C@H]1C(=O)N[C@@H](CC(N)=O)C(=O)N[C@H]2C(=O)N[C@H]3C(=O)N[C@H](C(=O)N[C@H](C(=O)O)c4cc(O)cc(O)c4-c4cc3ccc4O)[C@H](O[C@H]3C[C@](C)(N)[C@@H](O)[C@H](C)O3)c3ccc(c(Cl)c3)Oc3cc2cc(c3O[C@@H]2O[C@H](CO)[C@@H](O)[C@H](O)[C@H]2O[C@H]2C[C@](C)(NCc3ccc(-c4ccc(Cl)cc4)cc3)[C@@H](O)[C@H](C)O2)Oc2ccc(cc2Cl)[C@H]1O [Oritavancin]: the Bliss interaction score in the experiment on S. aureus Newman was 0.0454; in the experiment on S. aureus DSM 20231 it was 0.0291; in the experiment on S. pneumoniae D39V, -0.0616; in the experiment with B. subtilis 168, 0.031.

As for `C[C@H]1COc2c(N3CCN(C)CC3)c(F)cc3c(=O)c(C(=O)O)cn1c23` [Levofloxacin] + CO[C@@]12[C@H](COC(N)=O)C3=C(C(=O)C(C)=C(N)C3=O)N1C[C@@H]1N[C@@H]12 [MitomycinC], the Bliss interaction score in the experiment on S. aureus Newman is 0.0429; in the experiment on S. aureus DSM 20231, 0.0462; in the experiment with S. pneumoniae D39V, -0.0941; in the experiment with B. subtilis 168, 0.0422.
